Results: patent publication US8343999B2, “Thiazolyl compounds useful as kinase inhibitors” (Bristol-Myers Squibb Company, priority 2007, dated 2013)

Experiments:
IGF1-receptor = IGF1-receptor (Homo sapiens, UniProt P08069); assay: IGF1-Receptor Tyrosine Kinase Assay (Caliper LabChip, fluoresceinated IGF1R substrate peptide); type: biochemical; settings: In vitro kinase data; ATP 25 μM, IGF1-Receptor 14 nM; read-out: IGF-1R IC50
Procedure: D. IGF1-Receptor Tyrosine Kinase Assay
The assays were performed in U-bottom 384-well plates. The final assay volume was 30 μl prepared from 15 μl additions of enzyme and substrates (fluoresceinated IGF1R substrate peptide and ATP) and test compounds in assay buffer (100 mM HEPES pH 7.4, 10 mM MnCl2, 0.015% Brij35 and 4 mM DTT). The reaction was initiated by the combination of IGF1-receptor with substrates and test compounds. The reaction was incubated at room temperature for 60 min. and terminated by adding 30 μl of 35 mM EDTA to each sample. The reaction mixture was analyzed on the Caliper LabChip 3000 by electrophoretic separation of the fluorescent substrate and phosphorylated product. Inhibition data were calculated by comparison to no enzyme control reactions for 100% inhibition and vehicle-only reactions for 0% inhibition. The final concentration of reagents in the assays is ATP, 25 μM; FL-peptide, 1.5 μM; IGF1-Receptor, 14 nM; and DMSO, 1.6%. Dose response curves were generated to determine the concentration required inhibiting 50% of kinase activity (IC50). Compounds were dissolved at 10 mM in dimethylsulfoxide (DMSO) and evaluated at eleven concentrations, each in duplicate. IC50 values were derived by non-linear regression analysis.
(§1) Compounds described herein were tested in the above assay.

IGF1R-Sal tumors = assay: IGF-1R Sal Tumor Model (tumor xenograft in nude mice); type: in vivo; settings: qd, orally for 4 consecutive days, nude mice bearing IGF1R-Sal tumors
Procedure: P. IGF-1R Sal Tumor Model
A salivary gland adenocarcinoma that developed spontaneously in a transgenic mouse (MCI-19) was excised and cut into fragments of about 20 mg. Tumor fragments were implanted s.c. into the ventral thoracic region of a group of six female, athymic BALB/c nu/nu mice (Harley Sprague-Dawley, Indianapolis, Ind.), using a 13-gauge trocar. Once established, the salivary gland-derived tumor line was designated IGF1R-Sal and was propagated as a tumor xenograft in nude mice. Tumors were passaged every 2 weeks, at which time the tumor reached f500 to 1,000 mm3 in size. For treatment studies, nude micebearing IGF1R-Sal tumors of about 100 mm3 in size were sorted into groups of five for treatment with vehicle (80% polyethylene glycol 400 in water) alone or the test article. Compounds were administered either on a bid schedule (oral doses 8 hours apart) or on a once a day schedule orally (qd) for 4 consecutive days. Tumors were measured at the start and end of treatment. Activity was measured as % tumor growth inhibition (% TGI). The % TGI was determined using the following formula (Ct−Tt)/(Ct−Co) where Ct is defined as the median tumor size of the control group at the end of treatment, Co is defined as the median tumor size of the control group at the start of treatment, and Tt is defined as the median tumor size of the treated group at the end of treatment.
as §1

Chain of IGF1-receptor (P08069 31-1367): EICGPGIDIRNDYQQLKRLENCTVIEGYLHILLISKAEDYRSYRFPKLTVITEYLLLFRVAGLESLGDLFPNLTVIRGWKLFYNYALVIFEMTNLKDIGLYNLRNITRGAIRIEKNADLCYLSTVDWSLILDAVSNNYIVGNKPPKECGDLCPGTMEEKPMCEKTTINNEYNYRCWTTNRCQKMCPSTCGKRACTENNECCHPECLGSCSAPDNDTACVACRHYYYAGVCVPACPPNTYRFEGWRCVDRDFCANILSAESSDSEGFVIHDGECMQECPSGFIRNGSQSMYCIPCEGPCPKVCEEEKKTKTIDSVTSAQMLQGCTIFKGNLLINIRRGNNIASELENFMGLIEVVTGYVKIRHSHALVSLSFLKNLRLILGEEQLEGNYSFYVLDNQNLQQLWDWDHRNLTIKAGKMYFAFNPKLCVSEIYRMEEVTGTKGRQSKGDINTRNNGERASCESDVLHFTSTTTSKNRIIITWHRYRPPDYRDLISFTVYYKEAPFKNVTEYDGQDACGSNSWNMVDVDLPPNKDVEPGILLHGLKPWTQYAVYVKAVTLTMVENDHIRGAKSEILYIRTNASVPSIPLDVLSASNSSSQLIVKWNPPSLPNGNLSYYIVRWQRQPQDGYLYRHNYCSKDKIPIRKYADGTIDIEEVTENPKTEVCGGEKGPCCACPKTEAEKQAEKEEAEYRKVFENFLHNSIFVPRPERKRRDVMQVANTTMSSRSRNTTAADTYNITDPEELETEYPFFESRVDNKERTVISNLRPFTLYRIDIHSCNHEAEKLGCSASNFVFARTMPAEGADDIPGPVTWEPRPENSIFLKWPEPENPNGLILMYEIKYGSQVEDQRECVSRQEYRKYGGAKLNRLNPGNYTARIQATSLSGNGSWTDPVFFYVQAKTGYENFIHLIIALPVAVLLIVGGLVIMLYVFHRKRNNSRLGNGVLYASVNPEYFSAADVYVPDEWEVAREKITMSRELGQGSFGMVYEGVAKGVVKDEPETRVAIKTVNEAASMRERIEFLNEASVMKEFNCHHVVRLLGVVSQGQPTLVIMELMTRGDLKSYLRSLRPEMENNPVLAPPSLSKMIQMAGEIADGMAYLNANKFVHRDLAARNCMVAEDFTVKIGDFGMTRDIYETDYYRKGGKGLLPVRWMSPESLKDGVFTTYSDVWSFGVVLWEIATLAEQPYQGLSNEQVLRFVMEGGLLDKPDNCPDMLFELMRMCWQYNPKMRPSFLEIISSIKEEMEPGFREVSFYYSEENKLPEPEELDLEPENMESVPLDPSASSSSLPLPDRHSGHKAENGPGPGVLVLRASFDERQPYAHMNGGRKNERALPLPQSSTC

Row | Compound | IC50 (IGF1-receptor) [nM] | further results
1 | Cc1ccnc(Nc2ncc(Sc3ccnc(C(=O)NCC4(c5ccccn5)CCN(CCO)CC4)c3F)s2)c1 [Example 58, 3-fluoro-N-((1-(2-hydroxyethyl)-4-(pyridin-2-yl)piperidin-4-yl)methyl)-4-(2-(4-methylpyridin-2-ylamino)thiazol-5-ylthio)picolinamide] | 3 | 
2 | COCCOC(=O)N1CCC(CNC(=O)c2nccc(Sc3cnc(Nc4cc(C)ccn4)s3)c2F)(c2ccc(Cl)c(Cl)c2)CC1 [Example 86, 2-methoxyethyl 4-(3,4-dichlorophenyl)-4-((3-fluoro-4-(2-(4-methylpyridin-2-ylamino)thiazol-5-ylthio)picolinamido)methyl)piperidine-1-carboxylate] | 5690 | 
3 | Cc1ccnc(Nc2ncc(Sc3ccnc(C(=O)NCC4(c5ccccc5)CCN(C(=O)CN(C)C)CC4)c3F)s2)c1 [Example 12, N-((1-(2-(dimethylamino)acetyl)-4-phenylpiperidin-4-yl)methyl)-3-fluoro-4-(2-(4-methylpyridin-2-ylamino)thiazol-5-ylthio)picolinamide] | 6 | % TGI (IGF1R-Sal tumors; 12.5 mg/kg): 92%
4 | Cc1ccnc(Nc2ncc(Sc3ccnc(C(=O)NCC4(c5ccc(F)cc5F)CCN(C[C@H](O)CO)CC4)c3F)s2)c1 [Example 77, (S)—N-((4-(2,4-difluorophenyl)-1-(2,3-dihydroxypropyl)piperidin-4-yl)methyl)-3-fluoro-4-(2-(4-methylpyridin-2-ylamino)thiazol-5-ylthio)picolinamide] | 9 | % TGI (IGF1R-Sal tumors; 25 mg/kg): 114%
5 | Cc1ccnc(Nc2ncc(Sc3ccnc(C(=O)NCC4(C5CCCCC5)CCN(C(=O)OC(C)(C)C)CC4)c3F)s2)c1 [Example 44, tert-butyl 4-cyclohexyl-4-((3-fluoro-4-(2-(4-methylpyridin-2-ylamino)thiazol-5-ylthio)picolinamido)methyl)piperidine-1-carboxylate] | 25000 | 
6 | Cc1ccnc(Nc2ncc(Sc3ccnc(C(=O)NCC4(c5ccccc5)CCN(C(=O)N5CCOCC5)CC4)c3F)s2)c1 [Example 90, 3-Fluoro-4-(2-(4-methylpyridin-2-ylamino)thiazol-5-ylthio)-N-((1-(morpholine-4-carbonyl)-4-phenylpiperidin-4-yl)methyl)picolinamide] | 311 | 
7 | Cc1ccnc(Nc2ncc(Sc3ccnc(C(=O)NCC4(c5ccccc5)CCN(C(=O)C(C)(C)N)CC4)c3F)s2)c1 [Example 95, N-((1-(2-amino-2-methylpropanoyl)-4-phenylpiperidin-4-yl)methyl)-3-fluoro-4-(2-(4-methylpyridin-2-ylamino)thiazol-5-ylthio)picolinamide] | 4520 | 
8 | COCCOC(=O)N1CCC(CNC(=O)c2nccc(Sc3cnc(Nc4cc(C)ccn4)s3)c2F)(c2ccccn2)CC1 [Example 88, 2-Methoxyethyl 4-((3-fluoro-4-(2-(4-methylpyridin-2-ylamino)thiazol-5-ylthio)picolinamido)methyl)-4-(pyridin-2-yl)piperidine-1-carboxylate] | 349 | 
9 | Cc1ccnc(Nc2ncc(Sc3ccnc(C(=O)NCC4(c5ccccc5)CCN(C(=O)N(C)C)CC4)c3F)s2)c1 [Example 89, N-((1-(dimethylcarbamoyl)-4-phenylpiperidin-4-yl)methyl)-3-fluoro-4-(2-(4-methylpyridin-2-ylamino)thiazol-5-ylthio)picolinamide] | 358 | 
10 | Cc1ccnc(Nc2ncc(Sc3ccnc(C(=O)NCC4(c5ccccc5)CCN(CCO)CC4)c3F)s2)c1 [Example 5, 3-Fluoro-N-((1-(2-hydroxyethyl)-4-phenylpiperidin-4-yl)methyl)-4-(2-(4-methylpyridin-2-ylamino)thiazol-5-ylthio)picolinamide] | 3 | % TGI (IGF1R-Sal tumors; 12.5 mg/kg): 102%
11 | COC(=O)N1CCC(CNC(=O)c2nccc(Sc3cnc(Nc4cc(C)ccn4)s3)c2F)(c2ccccn2)CC1 [Example 87, Methyl 4-((3-fluoro-4-(2-(4-methylpyridin-2-ylamino)thiazol-5-ylthio)picolinamido)methyl)-4-(pyridin-2-yl)piperidine-1-carboxylate] | 423 | 
12 | CC(=O)N1CCC(CNC(=O)c2nccc(Sc3cnc(Nc4cc(C)ccn4)s3)c2F)(c2ccccc2)CC1 [Example 22, N-((1-acetyl-4-phenylpiperidin-4-yl)methyl)-3-fluoro-4-(2-(4-methylpyridin-2-ylamino)thiazol-5-ylthio)picolinamide] | 3 | 
13 | Cc1ccnc(Nc2ncc(Sc3ccnc(C(=O)NCC4(c5ccccc5)CCN(CCC#N)CC4)c3F)s2)c1 [Example 33, N-((1-(2-cyanoethyl)-4-phenylpiperidin-4-yl)methyl)-3-fluoro-4-(2-(4-methylpyridin-2-ylamino)thiazol-5-ylthio)picolinamide] | 320 | 
14 | Cc1ccnc(Nc2ncc(Sc3ccnc(C(=O)NCC4(c5ccccc5)CCN(S(C)(=O)=O)CC4)c3F)s2)c1 [Example 24, 3-Fluoro-4-(2-(4-methylpyridin-2-ylamino)thiazol-5-ylthio)-N-((1-(methylsulfonyl)-4-phenylpiperidin-4-yl)methyl)picolinamide] | 1 | 
15 | Cc1ccnc(Nc2ncc(Sc3ccnc(C(=O)NCC4(C5CCCCC5)CCN(C[C@H](O)CO)CC4)c3F)s2)c1 [Example 74, (S)—N-((4-cyclohexyl-1-(2,3-dihydroxypropyl)piperidin-4-yl)methyl)-3-fluoro-4-(2-(4-methylpyridin-2-ylamino)thiazol-5-ylthio)picolinamide] | 9 | % TGI (IGF1R-Sal tumors; 50 mg/kg): 100%
16 | Cc1ccnc(Nc2ncc(Sc3ccnc(C(=O)NCC4(c5ccccc5)CCN(C(=O)c5ccc(Cl)c(S(N)(=O)=O)c5)CC4)c3F)s2)c1 [Example 92, N-((1-(4-chloro-3-sulfamoylbenzoyl)-4-phenylpiperidin-4-yl)methyl)-3-fluoro-4-(2-(4-methylpyridin-2-ylamino)thiazol-5-ylthio)picolinamide] | 2000 | 
17 | Cc1ccnc(Nc2ncc(Sc3ccnc(C(=O)NCC4(c5ccccc5)CCN(C(=O)c5cccnc5)CC4)c3F)s2)c1 [Example 18, 3-Fluoro-4-(2-(4-methylpyridin-2-ylamino)thiazol-5-ylthio)-N-((1-nicotinoyl-4-phenylpiperidin-4-yl)methyl)picolinamide] | 1 | 
18 | Cc1ccnc(Nc2ncc(Sc3ccnc(C(=O)NCC4(c5ccccc5)CCNCC4)c3F)s2)c1 [Example 11, 3-Fluoro-4-(2-(4-methylpyridin-2-ylamino)thiazol-5-ylthio)-N-((4-phenylpiperidin-4-yl)methyl)picolinamide] | 4 | % TGI (IGF1R-Sal tumors; 12.5 mg/kg): 19%
19 | Cc1ccnc(Nc2ncc(Sc3ccnc(C(=O)NCC4(c5ccccc5)CCN(C(=O)c5cc(S(N)(=O)=O)c(F)cc5Cl)CC4)c3F)s2)c1 [Example 93, N-((1-(2-chloro-4-fluoro-5-sulfamoylbenzoyl)-4-phenylpiperidin-4-yl)methyl)-3-fluoro-4-(2-(4-methylpyridin-2-ylamino)thiazol-5-ylthio)picolinamide] | 3260 | 
20 | Cc1ccnc(Nc2ncc(Sc3ccnc(C(=O)NCC4(c5ccccc5)CCN(C)CC4)c3F)s2)c1 [Example 2, 3-Fluoro-N-((1-methyl-4-phenylpiperidin-4-yl)methyl)-4-(2-(4-methylpyridin-2-ylamino)thiazol-5-ylthio)picolinamide] | 9 | % TGI (IGF1R-Sal tumors; 12.5 mg/kg): 107%
